Data published in article PMC7821958, “Synthesis, in vitro enzyme activity and molecular docking studies of new benzylamine-sulfonamide derivatives as selective MAO-B inhibitors” (Journal of Enzyme Inhibition and Medicinal Chemistry, 2020).
Read-outs that look alike come from different tables or passages of the source.

How the values were obtained:
hMAO-A = molecular target: T1, hMAO-A (Homo sapiens, UniProt P21397); assay: MAO-A inhibition assay, fluorometric (Amplex Red / horseradish peroxidase-coupled); format: biochemical; settings: read-out: MAO-A % Inhibition
T1 construct: purchased Sigma-Aldrich (Steinheim, Germany)
T1 sequence (P21397 1-527): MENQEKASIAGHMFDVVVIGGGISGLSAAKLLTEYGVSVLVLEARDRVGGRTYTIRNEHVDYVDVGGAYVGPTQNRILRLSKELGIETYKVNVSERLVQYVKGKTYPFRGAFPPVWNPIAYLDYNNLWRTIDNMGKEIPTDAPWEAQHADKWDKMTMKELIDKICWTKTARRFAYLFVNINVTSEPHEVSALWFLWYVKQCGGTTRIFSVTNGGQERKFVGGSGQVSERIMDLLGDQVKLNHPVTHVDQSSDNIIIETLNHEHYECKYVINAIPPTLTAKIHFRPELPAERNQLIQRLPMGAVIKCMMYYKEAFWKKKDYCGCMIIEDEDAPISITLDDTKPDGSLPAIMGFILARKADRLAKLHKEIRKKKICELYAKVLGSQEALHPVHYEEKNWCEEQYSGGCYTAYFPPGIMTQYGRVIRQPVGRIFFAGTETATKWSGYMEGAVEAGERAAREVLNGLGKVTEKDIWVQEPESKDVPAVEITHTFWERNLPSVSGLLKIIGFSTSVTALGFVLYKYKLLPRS
Method: A Biotek Precision XS robotic system (USA) was used for all pipetting operations. Measurements were performed with the use of BioTek-Synergy H1 microplate reader (USA) based upon the fluorescence generated (excitation, 535 nm, emission, 587 nm) over a 30 min period, in which the fluorescence increased linearly.
Enzymatic assay was performed according to recent method pronounced by our research group[17]^,[20–22]. Control, blank and all concentrations of obtained compounds were tested in quadruplicate and inhibition percent was calculated with following equation: % Inhibition=(FCt2 − FCt1) − (FIt2 − FIt1)/FCt2 − FCt1 × 100
FCt2: Fluorescence of a control well measured at t2 time, FCt1: Fluorescence of a control well measured at […]: Fluorescence of an inhibitor well measured at t2 time, FIt1: Fluorescence of an inhibitor well measured at t1 time,
The IC50 values were calculated using a dose-response curve achieved by plotting the percentage inhibition versus the log concentration using GraphPad ‘PRISM’ software (version 5.0).
All the obtained benzylamine-sulphonamide derivatives 4a–4u were investigated for their inhibitory activity against MAO isoforms using a previously described in vitro fluorometric method, which is based on the detection of H2O2 in a horseradish peroxidase-coupled reaction using 10-acetyl-3,7-dihydroxyphenoxazine (Amplex Red reagent)[17]^,[20–22].
The assay was carried out in two steps. […].

hMAO-B = molecular target: T2, hMAO-B (Homo sapiens, UniProt P27338); assay: MAO-B inhibition assay, fluorometric (Amplex Red / horseradish peroxidase-coupled); format: biochemical; settings: for inhibition at 1000 µM: 10^−3 M; for inhibition at 100 µM: 10^−4 M; for inhibition at 10 µM: 10^−5 M; for inhibition at 1 µM: 10^−6 M; for inhibition at 0.1 µM: 10^−7 M; for inhibition at 0.01 µM: 10^−8 M; for inhibition at 0.001 µM: 10^−9 M; for IC50: Table 2, mean ± SD, read-out: IC50 against MAO-B;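 on all read-outs here: fluorescence read at Ex 535 nm and Em 587 nm over 30 min, linear phase, inhibition relative to uninhibited control wells, IC50 from log concentration–response curves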
T2 construct: purchased Sigma-Aldrich (Steinheim, Germany)
T2 sequence (P27338 1-520): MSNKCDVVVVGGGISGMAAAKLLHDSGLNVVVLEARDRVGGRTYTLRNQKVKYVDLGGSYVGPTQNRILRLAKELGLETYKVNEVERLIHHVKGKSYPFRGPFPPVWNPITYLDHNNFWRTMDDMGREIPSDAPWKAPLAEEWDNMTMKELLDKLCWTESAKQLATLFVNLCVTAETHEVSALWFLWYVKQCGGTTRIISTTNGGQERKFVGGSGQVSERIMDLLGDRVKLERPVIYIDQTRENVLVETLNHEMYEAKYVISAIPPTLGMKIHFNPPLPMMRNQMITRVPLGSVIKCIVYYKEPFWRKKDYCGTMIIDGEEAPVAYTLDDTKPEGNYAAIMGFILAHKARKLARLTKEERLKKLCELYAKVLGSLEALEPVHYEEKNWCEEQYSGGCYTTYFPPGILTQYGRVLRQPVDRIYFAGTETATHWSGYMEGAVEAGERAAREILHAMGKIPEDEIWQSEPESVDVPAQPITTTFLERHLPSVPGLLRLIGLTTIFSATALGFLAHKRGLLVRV
Excerpt: FCt2: Fluorescence of a control well measured at t2 time, FCt1: Fluorescence of a control well measured at t2 time, FIt2: Fluorescence of an inhibitor well measured at t2 time, FIt1: Fluorescence of an inhibitor well measured at t1 time,

Row | Structure (SMILES) | inhibition at 100 µM (hMAO-A) | inhibition at 1000 µM (hMAO-A) | melting point | inhibition at 1000 µM (hMAO-A; 10^−3 M) | inhibition at 100 µM (hMAO-A; 10^−4 M) | inhibition at 1000 µM (hMAO-B) | inhibition at 100 µM (hMAO-B) | inhibition at 10 µM (hMAO-B) | inhibition at 1 µM (hMAO-B) | inhibition at 0.1 µM (hMAO-B) | inhibition at 0.01 µM (hMAO-B) | inhibition at 0.001 µM (hMAO-B) | IC50 (hMAO-B)
1 | C#CCN(C)CCCOc1ccc(Cl)cc1Cl [Clorgiline, reference compound] | 98.3 ± 1.82% | 99.4 ± 1.96% | – | – | – | – | – | – | – | – | – | – | –
2 | Cn1ccnc1SCC(=O)N(Cc1ccccc1)c1ccc(S(N)(=O)=O)cc1 [Compound 4a, N-Benzyl-2-((1-methyl-1H-imidazol-2-yl)thio)-N-(4-sulfamoylphenyl)acetamide] | – | – | 137 to 139 °C | 35.1 ± 0.989% | 26.5 ± 0.856% | 92.3 ± 1.11% | 47 ± 0.958% | – | – | – | – | – | –
3 | Cn1cnnc1SCC(=O)N(Cc1ccccc1)c1ccc(S(N)(=O)=O)cc1 [Compound 4b, N-Benzyl-2-((4-methyl-4H-1,2,4-triazol-3-yl)thio)-N-(4-sulfamoylphenyl)acetamide] | – | – | 201 to 203 °C | 37.6 ± 0.714% | 20.1 ± 0.621% | 90.3 ± 1.3% | 86.3 ± 1.29% | 82.5 ± 1.11% | 76.9 ± 1.27% | 45.3 ± 0.974% | 32.6 ± 0.728% | 20.4 ± 0.683% | 188 ± 8 nM
4 | Cc1nnc(SCC(=O)N(Cc2ccccc2)c2ccc(S(N)(=O)=O)cc2)s1 [Compound 4c, N-Benzyl-2-((5-methyl-1,3,4-thiadiazol-2-yl)thio)-N-(4-sulfamoylphenyl)acetamide] | – | – | 164 to 166 °C | 40.6 ± 0.749% | 24.1 ± 0.61% | 91.1 ± 1.25% | 48.3 ± 0.855% | – | – | – | – | – | –
5 | Cn1nnnc1SCC(=O)N(Cc1ccccc1)c1ccc(S(N)(=O)=O)cc1 [Compound 4d, N-Benzyl-2-((1-methyl-1H-tetrazol-5-yl)thio)-N-(4-sulfamoylphenyl)acetamide] | – | – | – | 39.2 ± 0.65% | 29.5 ± 0.489% | 91.6 ± 1.25% | 79.7 ± 1.46% | 76.2 ± 1.06% | 70.9 ± 1.01% | 47.5 ± 0.957% | 29.7 ± 0.723% | 15.2 ± 0.602% | 127 ± 5 nM
6 | NS(=O)(=O)c1ccc(N(Cc2ccccc2)C(=O)CSc2nnnn2-c2ccccc2)cc1 [Compound 4e, N-Benzyl-2-((1-phenyl-1H-tetrazol-5-yl)thio)-N-(4-sulfamoylphenyl)acetamide] | – | – | – | 41.5 ± 0.899% | 28 ± 0.714% | 90.1 ± 1.01% | 48.4 ± 0.721% | – | – | – | – | – | –
7 | NS(=O)(=O)c1ccc(N(Cc2ccccc2)C(=O)CSc2ccccn2)cc1 [Compound 4f, N-Benzyl-2-(pyridin-2-ylthio)-N-(4-sulfamoylphenyl)acetamide] | – | – | – | 46 ± 0.863% | 30.1 ± 0.627% | 90.6 ± 1.39% | 83.3 ± 1.26% | 76.3 ± 1.11% | 73.2 ± 1.06% | 48.6 ± 0.957% | 32.5 ± 0.721% | 20.9 ± 0.623% | 146 ± 6 nM
8 | NS(=O)(=O)c1ccc(N(Cc2ccccc2)C(=O)CSc2nc3ccccc3o2)cc1 [Compound 4g, 2-(Benzoxazol-2-ylthio)-N-benzyl-N-(4-sulfamoylphenyl)acetamide] | – | – | 82 to 84 °C | 47.2 ± 0.979% | 32.2 ± 0.621% | 94.7 ± 1.34% | 47.3 ± 0.963% | – | – | – | – | – | –
9 | NS(=O)(=O)c1ccc(N(Cc2ccccc2)C(=O)CSc2nc3ccccc3s2)cc1 [Compound 4h, 2-(Benzothiazol-2-ylthio)-N-benzyl-N-(4-sulfamoylphenyl)acetamide] | – | – | 88 to 90 °C | 39.1 ± 0.821% | 20.3 ± 0.608% | 96.2 ± 1.1% | 48.8 ± 0.879% | – | – | – | – | – | –
10 | COc1ccc2sc(SCC(=O)N(Cc3ccccc3)c3ccc(S(N)(=O)=O)cc3)nc2c1 [Compound 4j, N-Benzyl-2-((5-methoxybenzothiazol-2-yl)thio)-N-(4-sulfamoylphenyl)acetamide] | – | – | – | 48.2 ± 0.825% | 37.4 ± 0.679% | 90.8 ± 1.25% | 45.1 ± 0.958% | – | – | – | – | – | –
11 | Cc1ccc(CN(C(=O)CSc2nccn2C)c2ccc(S(N)(=O)=O)cc2)cc1 [Compound 4k, 2-((1-Methyl-1H-imidazol-2-yl)thio)-N-(4-methylbenzyl)-N-(4-sulfamoylphenyl)acetamide] | – | – | 153 to 155 °C | 39.3 ± 0.701% | 30.3 ± 0.582% | 79.5 ± 0.957% | 39 ± 0.702% | – | – | – | – | – | –
12 | Cc1ccc(CN(C(=O)CSc2nncn2C)c2ccc(S(N)(=O)=O)cc2)cc1 [Compound 4l, 2-((4-Methyl-4H-1,2,4-triazol-3-yl)thio)-N-(4-methylbenzyl)-N-(4-sulfamoylphenyl)acetamide] | – | – | 229 to 231 °C | 42.3 ± 0.63% | 25.2 ± 0.712% | 74.2 ± 1.05% | 43.8 ± 0.882% | – | – | – | – | – | –
13 | Cc1ccc(CN(C(=O)CSc2nnc(C)s2)c2ccc(S(N)(=O)=O)cc2)cc1 [Compound 4m, 2-((5-Methyl-1,3,4-thiadiazol-2-yl)thio)-N-(4-methylbenzyl)-N-(4-sulfamoylphenyl)acetamide] | – | – | 178 to 180 °C | 37.4 ± 0.85% | 31.1 ± 0.729% | 76.3 ± 1% | 40.1 ± 0.799% | – | – | – | – | – | –
14 | Cc1ccc(CN(C(=O)CSc2nnnn2C)c2ccc(S(N)(=O)=O)cc2)cc1 [Compound 4n, 2-((1-Methyl-1H-tetrazol-5-yl)thio)-N-(4-methylbenzyl)-N-(4-sulfamoylphenyl)acetamide] | – | – | – | 40.2 ± 0.97% | 21.5 ± 0.632% | 72.2 ± 0.959% | 38.3 ± 0.638% | – | – | – | – | – | –
15 | Cc1ccc(CN(C(=O)CSc2nnnn2-c2ccccc2)c2ccc(S(N)(=O)=O)cc2)cc1 [Compound 4o, N-(4-Methylbenzyl)-2-((1-phenyl-1H-tetrazol-5-yl)thio)-N-(4-sulfamoylphenyl)acetamide] | – | – | – | 44.2 ± 0.877% | 28.7 ± 0.509% | 68.3 ± 0.824% | 30.3 ± 0.721% | – | – | – | – | – | –
16 | Cc1ccc(CN(C(=O)CSc2ccccn2)c2ccc(S(N)(=O)=O)cc2)cc1 [Compound 4p, N-(4-Methylbenzyl)-2-(pyridin-2-ylthio)-N-(4-sulfamoylphenyl)acetamide] | – | – | 121 to 123 °C | 45.2 ± 0.971% | 24.9 ± 0.792% | 70.5 ± 1.07% | 35.6 ± 0.622% | – | – | – | – | – | –
17 | Cc1ccc(CN(C(=O)CSc2nc3ccccc3o2)c2ccc(S(N)(=O)=O)cc2)cc1 [Compound 4r, 2-(Benzoxazol-2-ylthio)-N-(4-methylbenzyl)-N-(4-sulfamoylphenyl)acetamide] | – | – | 148 to 150 °C | 42.4 ± 0.821% | 32.7 ± 0.697% | 67.5 ± 0.957% | 33.1 ± 0.798% | – | – | – | – | – | –
18 | Cc1ccc(CN(C(=O)CSc2nc3ccccc3s2)c2ccc(S(N)(=O)=O)cc2)cc1 [Compound 4s, 2-(Benzothiazol-2-ylthio)-N-(4-methylbenzyl)-N-(4-sulfamoylphenyl)acetamide] | – | – | 170 to 172 °C | 38.2 ± 0.734% | 33 ± 0.697% | 72.7 ± 1% | 40.3 ± 0.835% | – | – | – | – | – | –
19 | COc1ccc2sc(SCC(=O)N(Cc3ccc(C)cc3)c3ccc(S(N)(=O)=O)cc3)nc2c1 [Compound 4u, 2-((5-Methoxybenzothiazol-2-yl)thio)-N-(4-methylbenzyl)-N-(4-sulfamoylphenyl)acetamide] | – | – | – | 36.8 ± 0.678% | 29.9 ± 0.539% | 65.1 ± 0.985% | 36 ± 0.726% | – | – | – | – | – | –
